# Data as given in publication PMC4492822 (EMBO Molecular Medicine, 2015).
# Experiments:
# [1] = test system: preclinical breast and sarcoma models; experiment: Single agent activity in preclinical breast and sarcoma models; assay type: in vivo; details: authors' response to reviewers
# Source text: EMBO Molecular Medicine Peer Review Process File - EMM-2014-04368 levels vary based on the datasets analyzed. In addition, as far as DDX3 protein levels are concerned, […]
# making it difficult to interpret the gene expression datasets as an absolute unit to that of the protein […]
# 3) A more detailed description of expression in other normal tissues would help anticipate toxicities.
# Response: It is difficult to ascertain if the levels of DDX3 in the normal cells will directly correlate to toxicities levels following RK-33 treatment. It is possible that normal cells are not dependent on DDX3 for its cellular biogenesis as compared to the cancer cells. This could be one of the reasons why there is no observable toxicity within our experimental setting. Also, as a first step to determine toxicity for a novel drug, it is essential to test the effect in small animals like mouse or rat. Based on these criteria, we observed no toxicity in mouse at higher levels than the therapeutic dose to kill […]
# impart any visible side effects.
# 4) Legends for Figure 2 are mislabeled.
# Response: We thank the reviewer for pointing this out. We have rectified this in the revised […]
# 5) What is the subsrate in the helicase assay. Have the authors explored RNA secondary (e.g. G-quadruplex or hairpin structures)? […]
# 10) Figure 7. Please add a quantification of cell death. […]
# [2] = parameters: species or system SCID mice; details: mouse, in vivo
# Experimental: Figure 5 Toxicity studies of RK-33 in mice • Following injection of 20 mg/kg of RK-33, twice a week for 7 weeks, extensive histopathological examination was carried out following necropsy. Identical patterns were observed both in the control and in the treated mice (n = 2). Samples were stained with H&E. Scale bar is 50 μm. • Pharmacokinetics of RK-33 in SCID mice at various time intervals. Results are mean ± SD from 5 mice. LC-MS/MS method was used to determine concentration of RK-33 in mouse plasma and tissue. • Liquid chromatography–mass spectrometry (LC-MS/MS) analysis was performed to determine different metabolites of RK-33. • RK-33 and metabolites characterized by LC-MS/MS in human liver microsomes using the scan mode function of the LC-MS/MS. • HAPI cells were treated with RK-33 (10 μM), HA14-1 (25 μM), or DMSO vehicle, followed by oligomycin (oligo, 0.5 μg/ml), FCCP (3 μM), and antimycin A (AA, 1 μM) while oxygen consumption rate (OCR) was measured. Pyruvate (10 mM) was added in combination with FCCP to ensure that substrate supply was not rate-limiting for maximal OCR. Data are mean ± SD from 2 to 3 wells and representative of independent experiments performed with two different HAPI passages. […] Significance was assessed by two-sided, unpaired t-test. […]
# H1299 cells = experiment: qRT-PCR of TCF-regulated genes; assay type: cell-based
# Source text: RNA was extracted according to the manufacturer's instructions (Qiagen, Valencia, CA, USA), and cDNA was manufactured using qScript cDNA synthesis kit (Quanta BioSciences, Gaithersburg, MD, USA), followed by qPCR using SYBR green (Quanta BioSciences) on an iCycler5 (Bio-Rad, Hercules, CA, USA). Amplification of 36B4, a housekeeping gene, was used for normalizing gene expression values.
substance,measurement,setting,value
"diimidazo[4,5-d:4′,5′-f]-[1,3]diazepine [RK-33]",single agent activity,[1],delayed tumor growth
same,accumulation in organs (biodistribution),[2],able to accumulate at therapeutic dose in various organs
same,reduction of Axin-2 mRNA expression,H1299 cells,1.8 fold
same,reduction of Cyclin D1 mRNA expression,H1299 cells,2.4 fold
